≈ marks a conversion by molar mass, not a printed value.
T1: SAMe transporter from S. cerevisiae (Saccharomyces cerevisiae, UniProt Q08986)
T1 sequence (Q08986 1-587): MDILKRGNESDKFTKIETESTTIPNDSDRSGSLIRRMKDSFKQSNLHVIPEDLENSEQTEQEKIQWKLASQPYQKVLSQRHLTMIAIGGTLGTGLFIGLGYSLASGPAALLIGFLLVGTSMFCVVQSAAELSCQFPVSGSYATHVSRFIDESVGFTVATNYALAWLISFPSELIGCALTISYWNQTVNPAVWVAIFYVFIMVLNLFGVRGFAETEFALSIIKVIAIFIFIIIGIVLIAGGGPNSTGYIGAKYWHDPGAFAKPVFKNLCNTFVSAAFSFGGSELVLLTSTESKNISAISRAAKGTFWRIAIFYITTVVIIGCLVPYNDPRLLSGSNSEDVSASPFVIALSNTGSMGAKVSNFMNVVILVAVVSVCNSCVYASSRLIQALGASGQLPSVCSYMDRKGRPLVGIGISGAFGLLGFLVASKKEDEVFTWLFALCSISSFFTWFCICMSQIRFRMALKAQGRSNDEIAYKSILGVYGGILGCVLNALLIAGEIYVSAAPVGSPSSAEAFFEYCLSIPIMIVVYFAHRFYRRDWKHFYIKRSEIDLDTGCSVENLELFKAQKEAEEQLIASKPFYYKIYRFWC

B1: Val 185 Glu: E. coli MetK mutant, C-terminal His tagged, purified (protein, UniProt P0A817 2-384, looked up, variant V185E)
S-adenosylmethionine synthase: AKHLFTSESVSEGHPDKIADQISDAVLDAILEQDPKARVACETYVKTGMVLVGGEITTSAWVDIEEITRNTVREIGYVHSDMGFDANSCAVLSAIGKQSPDINQGVDRADPLEQGAGDQGLMFGYATNETDVLMPAPITYAHRLVQRQAEVRKNGTLPWLRPDAKSQVTFQYDDGKIVGIDAVELSTQHSEEIDQKSLQEAVMEEIIKPILPAEWLTSATKFFINPTGRFVIGGPMGDCGLTGRKIIVDTYGGMARHGGGAFSGKDPSKVDRSAAYAARYVAKNIVAAGLADRCEIQVSYAIGVAEPTSIMVETFGTEKVPSEQLTLLVREFFDLRPYGLIQMLDLLHPIYKETAAYGHFGREHFPWEKTDKAQLLRDAAGLK
modifications: C-terminal His tag
notes: E. coli MetK mutant, C-terminal His tagged, purified

Experiments:
[1] = target: Rickettsia high-affinity SAMe transport system (Rickettsia prowazekii, UniProt Q9ZE70); conditions: Rickettsia SAMe transporter; cited from earlier work
[2] = target: T1, SAMe transporter from S. cerevisiae; conditions: cited from earlier work
[3] = tested on: SAMe transporter from P. carnii; conditions: cited from earlier work
[4] = tested on: SAMe transporter from rat liver; conditions: cited from earlier work
[5] = tested on: homocysteine synthase encoded by metY from Pseudomonas aeruginosa; assay: Homocysteine synthase (MetY) activity assay (Yamagata, modified, DTNB detection)
physchem = conditions: 30 °C, water
Source text: This is close to the highest concentration achievable in the assay conditions.

[6] = 30° C.; cited from earlier work
[7] = target: high affinity L-methionine transporter (metD) (Escherichia coli, UniProt P28635); conditions: very high affinity transporter in E. coli; cited from earlier work
[8] = tested on: lower affinity L-methionine transporter (metP); conditions: lower affinity transporter in E. coli; cited from earlier work
MetK = MetK mutants radioactive assay in vitro ([methyl-14C]methionine to SAMe); format: biochemical, E. coli; conditions: 5 minute reaction time; C-terminal His tagged proteins unless untagged
Procedure: The metK gene from E. coli (Accession number AP—003499 or BAE77005) was cloned and overexpressed with either an N-terminal or a C-terminal His tag in pET28b vector. Site directed mutagenesis was performed using the C-terminal His tagged metK clone to generate the desired mutants. Expression of the mutant MetK proteins was confirmed.
The MetK mutants were purified (using the C-terminal His tag) and assayed in vitro. The wild type C-terminal His-tagged MetK protein was used as a control. The mutants were assayed using a radioactive assay. The assay conditions were as follows: • Assay Mix: • 1.0 mL 0.5 M HEPES/KOH, pH 8.0 • 0.5 mL 1.0 M KCl • 0.2 mL 1.0 M MgCl2 • 1.0 mL 100 mM ATP (disodium salt, pH 8.0 with KOH) • 0.1 mL 50 mM methionine • 0.1 mL NEN [methyl-^14C]methionine • 6.6 mL H2O • 25 mM EDTA pH 8.0 stop for assays.
45 μl of assay mix was added to an Eppendorf tube and 5 μL of enzyme (normalized data shown in Table 13. The reaction was incubated at room temperature (or 25° C.) for a desired period (1 to 10 minutes). The reaction was stopped with the addition of 150 μL of 25 mM EDTA. 100 μL of the reaction was spotted onto a 2.5 cm diameter Whatman P-81 phosphocellulose filter circle (labeled in pencil). The filters were washed with 3 L of distilled water, air-dried and placed in scintillation vials with aquasol. The emissions were counted using a window that extends from ^14C to about 0. Assay efficiency and quench levels were determined by adding a known amount of counts of pure ^14C-SAM and processing through the whole procedure. Backgrounds are typically<100 cpm (total counts ca. 10^5 cpm per reaction).

excreted Met = conditions: literature reference AEM 2005; cited from earlier work
[9] = OAHS as substrate, 10 mM inhibitor

Sequence of Rickettsia high-affinity SAMe transport system (Q9ZE70 whole entry, looked up): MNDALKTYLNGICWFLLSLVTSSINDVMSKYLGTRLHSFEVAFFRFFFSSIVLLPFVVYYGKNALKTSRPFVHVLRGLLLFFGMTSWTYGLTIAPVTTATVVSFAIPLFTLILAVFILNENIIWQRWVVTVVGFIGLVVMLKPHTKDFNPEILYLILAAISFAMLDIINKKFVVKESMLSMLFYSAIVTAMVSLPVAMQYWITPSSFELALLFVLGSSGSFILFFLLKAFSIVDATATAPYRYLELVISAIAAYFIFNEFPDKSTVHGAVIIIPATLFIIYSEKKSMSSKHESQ
Sequence of high affinity L-methionine transporter (metD) (P28635 23-271): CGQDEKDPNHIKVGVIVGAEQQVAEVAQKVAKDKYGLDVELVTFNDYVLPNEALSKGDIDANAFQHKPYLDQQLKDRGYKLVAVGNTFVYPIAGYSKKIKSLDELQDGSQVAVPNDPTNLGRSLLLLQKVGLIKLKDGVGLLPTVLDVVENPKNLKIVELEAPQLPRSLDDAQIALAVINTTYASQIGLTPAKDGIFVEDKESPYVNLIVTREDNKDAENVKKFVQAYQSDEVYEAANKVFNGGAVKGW
Sequence of high affinity L-methionine transporter (metD) (P30750 whole entry, further chain): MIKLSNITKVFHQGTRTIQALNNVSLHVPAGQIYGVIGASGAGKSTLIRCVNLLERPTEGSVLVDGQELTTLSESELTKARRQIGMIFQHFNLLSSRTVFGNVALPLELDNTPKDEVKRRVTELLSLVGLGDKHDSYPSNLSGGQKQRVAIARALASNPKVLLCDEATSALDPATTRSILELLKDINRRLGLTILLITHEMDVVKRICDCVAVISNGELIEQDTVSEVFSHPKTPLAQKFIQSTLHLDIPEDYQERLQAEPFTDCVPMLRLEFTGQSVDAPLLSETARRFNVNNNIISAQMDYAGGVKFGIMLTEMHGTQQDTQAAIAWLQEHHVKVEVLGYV
Sequence of high affinity L-methionine transporter (metD) (P31547 whole entry, further chain): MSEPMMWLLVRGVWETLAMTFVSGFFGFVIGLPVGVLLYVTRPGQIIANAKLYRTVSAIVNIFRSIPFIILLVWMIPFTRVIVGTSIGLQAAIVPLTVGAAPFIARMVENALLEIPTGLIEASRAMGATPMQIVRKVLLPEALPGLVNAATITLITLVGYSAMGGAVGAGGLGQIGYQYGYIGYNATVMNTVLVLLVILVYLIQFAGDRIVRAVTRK

Molecule | KT [1] | KT [2] | KT [3] | KT [4] | activity retained relative to absence of inhibitor ([5]; OAHS as substrate, 5 mM inhibitor) | activity retained relative to absence of inhibitor [5, 9] | activity retained relative to absence of inhibitor ([5]; OSHS as substrate, 5 mM inhibitor) | activity retained relative to absence of inhibitor ([5]; OSHS as substrate, 10 mM inhibitor) | solubility (physchem) | solubility in water [6] | Km [7] | Km [8] | inhibition of MetY ([5]; 1 mM methionine) | activity retained relative to absence of inhibitor ([5]; OAHS as substrate, 50 mM inhibitor) | activity retained relative to absence of inhibitor ([5]; OAHS as substrate, 100 mM inhibitor) | activity retained relative to absence of inhibitor ([5]; OSHS as substrate, 50 mM inhibitor) | activity retained relative to absence of inhibitor ([5]; OSHS as substrate, 100 mM inhibitor) | Activity (CPM SAMe/ μg purified protein/min) (MetK) | Expected Effect: increase in excreted Met over control (excreted Met)
C[S+](CC[C@H](N)C(=O)O)C[C@H]1O[C@@H](n2cnc3c(N)ncnc32)[C@H](O)[C@@H]1O (some centres unmarked) [SAMe, S-adenosylmethionine] | 2 to 8 µM | 3.3 µM | 4.5 µM | 8.9 µM | approximately 72% | ~21% | 86% | 19% |  |  |  |  |  |  |  |  |  |  | 
CSCC[C@H](N)C(=O)O [methionine] |  |  |  |  |  | about 50% |  |  | 375000 µM (≈ 56 mg/mL) | 5.6 g/100 mL | 0.1 to 0.13 µM | 20 to 40 µM | Some inhibition | ~19% | ~9% | 53% | 31% |  | 
B1 |  |  |  |  |  |  |  |  |  |  |  |  |  |  |  |  |  | 4.9 CPM SAMe/ μg purified protein/min | 6.4X increase in

— US8551742B2 (priority 2007, dated 2013)
